Data: article PMC9958137, “The cofactor-dependent folding mechanism of Drosophila cryptochrome revealed by single-molecule pulling experiments” (Nature Communications, 2023)

biological target: T1, dCRY (Drosophila cryptochrome) (Drosophila melanogaster, UniProt O77059); experiment: single-molecule optical tweezers, FAD titration of fully folded fraction; format: binding; settings: read-out: Kd,app
T1 construct: gene cry; full length, 542 residues; His6, N-terminal Avi tag (biotinylated) and C-terminal ybbR tag (DNA handle) kept; 558 residues with engineered linkers; FAD dialysed out for apo; only genus Drosophila given
T1 sequence (O77059 whole entry): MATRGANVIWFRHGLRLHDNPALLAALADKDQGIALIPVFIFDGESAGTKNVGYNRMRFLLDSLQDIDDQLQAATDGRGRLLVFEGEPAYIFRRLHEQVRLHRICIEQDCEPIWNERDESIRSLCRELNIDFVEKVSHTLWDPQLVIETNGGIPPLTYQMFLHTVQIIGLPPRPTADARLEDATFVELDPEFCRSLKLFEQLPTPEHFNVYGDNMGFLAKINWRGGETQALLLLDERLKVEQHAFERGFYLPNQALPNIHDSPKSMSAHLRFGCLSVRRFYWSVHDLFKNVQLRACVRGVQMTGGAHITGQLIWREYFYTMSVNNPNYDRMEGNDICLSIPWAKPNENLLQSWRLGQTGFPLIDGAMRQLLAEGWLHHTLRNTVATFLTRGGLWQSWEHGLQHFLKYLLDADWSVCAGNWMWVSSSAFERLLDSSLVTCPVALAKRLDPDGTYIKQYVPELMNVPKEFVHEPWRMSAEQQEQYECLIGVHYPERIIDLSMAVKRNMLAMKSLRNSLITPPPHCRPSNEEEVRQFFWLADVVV

Kd	Compound
0.11 ± 0.01 nM	Cc1cc2nc3c(=O)[nH]c(=O)nc-3n(C[C@H](O)[C@H](O)[C@H](O)COP(=O)(O)OP(=O)(O)OC[C@H]3O[C@@H](n4cnc5c(N)ncnc54)[C@H](O)[C@@H]3O)c2cc1C [FAD]

biological target: T1, dCRY (Drosophila cryptochrome); experiment: single-molecule optical tweezers, ligand-promoted refolding; format: binding; settings: 0.1 mM ligand, FAD dialysed out; refolding 20 s at 1 pN; pH 8.0; no Mg2+

% fully folded events at 0.1 mM	Compound
84%	Cc1cc2nc3c(=O)[nH]c(=O)nc-3n(C[C@H](O)[C@H](O)[C@H](O)COP(=O)(O)O)c2cc1C [FMN]
39%	Cc1cc2nc3c(=O)[nH]c(=O)nc-3n(C[C@H](O)[C@H](O)[C@H](O)CO)c2cc1C [riboflavin]

Second part, the molecule before the results:

Compound	% fully folded events at 0.1 mM
Nc1ncnc2c1ncn2[C@@H]1O[C@H](COP(=O)(O)OP(=O)(O)O)[C@@H](O)[C@H]1O [ADP]	9%
Nc1ncnc2c1ncn2[C@@H]1O[C@H](COP(=O)(O)O)[C@@H](O)[C@H]1O [AMP]	24%
Nc1ncnc2c1ncn2[C@@H]1O[C@H](CO)[C@@H](O)[C@H]1O [adenosine]	20%
